Source: patent US20240199611A1, “ANTIBACTERIAL COMPOUNDS” (JANSSEN SCIENCES IRELAND UNLIMITED COMPANY, priority 2021, published 2024)
Where two headings read alike, the source gives them in different places.

Key:
[1] = tested on: Mycobacterium tuberculosis strain EH4.0 expressing green-fluorescent protein (GFP); assay: microbe, parasite or virus in culture; type: cell-based; conditions: read-out: pIC50 (converted)

Row | SMILES | melting point | IC50 ([1]; Test 1 (and/or Test 2)) | other results
1 | CCc1nc2ccc(Cl)cn2c1C(=O)NCc1ccc(N2CCN(c3nccs3)C(OC)=N2)cc1 [Compound 54] | 233.23 °C | 11 nM | –
2 | Cc1ccc2nc(C(F)(F)F)c(C(=O)NCc3ccc(N4CCN(S(=O)(=O)C(F)(F)F)C=N4)c(F)c3)n2c1 [Compound 175] | – | 1.58 nM | –
3 | CCc1nc2ccc(Cl)cn2c1C(=O)NCc1ccc(N2CCN(C)C=N2)cc1 [Compound 15] | 206.66 °C | – | –
4 | CCc1nc2ccc(Cl)cn2c1C(=O)NCc1ccc(N2CCN(C)C(C)=N2)cc1 [Compound 59] | 202.94 °C | – | –
5 | CCc1nc2ccc(C#N)cn2c1C(=O)NCc1ccc(N2CCN(S(=O)(=O)C(F)(F)F)C=N2)cc1 [Compound 72] | 216.25 °C | – | –
6 | CCc1nc2ncc(Cl)cn2c1C(=O)NCc1ccc(N2CCN(C(C)=O)C=N2)cc1 [Compound 24] | 258.01 °C | – | –
7 | Cc1cn2c(C(=O)NCc3ccc(N4CCN(S(=O)(=O)C(F)(F)F)C=N4)c(F)c3)c(C)nc2s1 [Compound 153] | – | 1.78 nM | –
8 | CCc1nc2ccc(Cl)cn2c1C(=O)NCc1ccc(N2CCNC=N2)cc1 [Compound 56] | 236.36 °C | – | –
9 | CCc1nc2ccc(OC)cn2c1C(=O)NCc1ccc(N2CCN(S(=O)(=O)C(F)(F)F)C=N2)cc1 [Compound 42] | 147.57 °C | – | –
10 | CCc1nc2ncc(COC)cn2c1C(=O)NCc1ccc(N2CCN(S(=O)(=O)C(F)(F)F)C=N2)cc1 [Compound 33] | 225.92 °C | – | –
11 | CCc1nc2ccc(F)cn2c1C(=O)NCc1ccc(N2CCN(S(=O)(=O)C(F)(F)F)C(C3CC3)=N2)cc1 [Compound 227] | – | 11.5 nM | –
12 | CCc1nc2ncc(C)cn2c1C(=O)NCc1ccc(N2CCN(S(=O)(=O)C(F)(F)F)C(C)=N2)cc1 [Compound 250] | – | 1.58 nM | –
13 | CCc1nc2ccc(C)cn2c1C(=O)NCc1cnc(N2CCN(S(=O)(=O)C(F)(F)F)C(C(C)C)=N2)c(F)c1 [Compound 246] | – | 2.63 nM | –
14 | CCc1nc2cc(C)c(C)cn2c1C(=O)NCc1ccc(N2CCN(S(=O)(=O)C(F)(F)F)C(C(C)C)=N2)cc1 [Compound 245] | – | 13.8 nM | –
15 | CCc1nc2c(F)cc(Cl)cn2c1C(=O)NCc1ccc(N2CCN(S(=O)(=O)C(F)(F)F)C(C(C)C)=N2)cc1 [Compound 244] | – | 4.57 nM | –
16 | CCc1nc2cc(Cl)c(OC)cn2c1C(=O)NCc1ccc(N2CCN(S(=O)(=O)C(F)(F)F)C(OC)=N2)cc1 [Compound 45] | 155.29 °C | – | –
17 | CCc1nc2ncc(Cl)cn2c1C(=O)NCc1ccc(N2CCN(S(=O)(=O)CC(C)C)C=N2)cc1 [Compound 23] | 207.21 °C | – | –
18 | CCc1nc2nc3c(cn2c1C(=O)NCc1ccc(N2CCN(S(=O)(=O)C(F)(F)F)C=N2)c(F)c1)CCC3 [Compound 154] | – | 1.7 nM | –
19 | CCc1nc2ccc(Cl)cn2c1C(=O)NCc1ccc(N2CCN(Cc3nc(C(F)(F)F)cs3)C=N2)cc1 [Compound 69] | 163.46 °C | – | –
20 | CCc1nc2sc(Cl)cn2c1C(=O)NCc1ccc(N2CCN(S(=O)(=O)C(F)(F)F)C=N2)c(F)c1 [Compound 135] | – | 7.24 nM | –
21 | COc1ccn2nc(C)c(C(=O)NCc3ccc(N4CCN(S(=O)(=O)C(F)(F)F)C=N4)cc3)c2c1 [Compound 14] | 192.27 °C | – | –
22 | CCc1nc2ccc(Cl)cn2c1C(=O)NCc1ccc(N2CCN(C(=O)C(F)(F)F)C=N2)cc1 [Compound 66] | 211.3 °C | – | –

Row | SMILES | melting point | IC50 ([1]; Test 1 (and/or Test 2)) | other results
23 | CCc1nc2ccc(C)cn2c1C(=O)NCc1ccc(N2CCN(S(=O)(=O)C(F)(F)F)C(C3CCC3)=N2)cc1 [Compound 237] | – | 5.75 nM | –
24 | COC1=NN(c2ccc(CNC(=O)c3nnc4ccc(Br)cn34)cc2F)CCN1S(=O)(=O)C(F)(F)F [Compound 94] | – | – | IC50 [1]: 38.9 nM
25 | CCc1nc2ncc(Cl)cn2c1C(=O)NCc1ccc(N2CCN(S(=O)(=O)C(F)(F)F)C(OC)=N2)cc1 [Compound 27] | 174.88 °C | – | –
26 | CCc1nc2ccc(Cl)cn2c1C(=O)NCc1ccc(N2CCN(c3nccs3)C=N2)cc1 [Compound 76] | 232.4 °C | – | –
27 | CC1=NN(c2ncc(CNC(=O)c3c(C(F)(F)F)nc4ccccn34)cc2F)CCN1S(=O)(=O)C(F)(F)F [Compound 256] | – | 18.6 nM | –
28 | CCc1nc2ncc(F)cn2c1C(=O)NCc1ccc(N2CCN(S(=O)(=O)C(F)(F)F)C=N2)cc1 [Compound 10] | 171.42 °C | – | –
29 | CCc1nc2cc(OC)c(Cl)cn2c1C(=O)NCc1ccc(N2CCN(S(=O)(=O)C(F)(F)F)C=N2)cc1 [Compound 64] | 193.79 °C | – | –
30 | O=C(NCc1ccc(N2CCN(S(=O)(=O)C(F)(F)F)C=N2)c(F)c1)c1c(C(F)F)nc2n1CCCC2 [Compound 147] | – | 3.8 nM | –
31 | CCc1nc2ccc(Cl)cn2c1C(=O)NCc1ccc(N2CCN(S(=O)(=O)CCOC)C=N2)cc1 [Compound 19] | 196.34 °C | – | –
32 | CCc1nc2ccc(Cl)cn2c1C(=O)NCc1ccc(N2CCN(S(=O)(=O)C(F)(F)F)C(C3CC3)=N2)cc1 [Compound 230] | – | 6.61 nM | –
33 | CC1=NN(c2ccc(CNC(=O)c3c(C(F)(F)F)nc4ncccn34)cc2F)CCN1S(=O)(=O)C(F)(F)F [Compound 254] | – | 53.7 nM | –
34 | CCc1nc2ccc(C)cn2c1C(=O)NCc1cnc(N2CCN(S(=O)(=O)C(F)(F)F)C(C3CC3)=N2)c(F)c1 [Compound 232] | – | 1.51 nM | –
35 | CCC1=NN(c2ccc(CNC(=O)c3c(CC)nc4ccc(Cl)cn34)cc2)CCN1S(=O)(=O)C(F)(F)F [Compound 2] | 178.31 °C | – | –
36 | CCc1nc2ccc(Cl)cn2c1C(=O)NCc1cc(F)c(N2CCN(S(=O)(=O)C(F)(F)F)C=N2)c(F)c1 [Compound 35] | 152.93 °C | – | –
37 | CCc1nc2n(c1C(=O)NCc1ccc(N3CCN(S(=O)(=O)C(F)(F)F)C(C(C)C)=N3)c(F)c1)CCCC2 [Compound 242] | – | 2.4 nM | –
38 | CCc1nc2ccc(CCCOC)cn2c1C(=O)NCc1ccc(N2CCN(S(=O)(=O)C(F)(F)F)C=N2)cc1 [Compound 63] | 159.95 °C | – | –
39 | CCc1nc2cc(OC)c(Cl)cn2c1C(=O)NCc1ccc(N2CCN(S(=O)(=O)C(F)(F)F)C(OC)=N2)c(F)c1 [Compound 46] | 176.82 °C | – | –
40 | CCc1nc2cc(Cl)c(OC)cn2c1C(=O)NCc1ccc(N2CCN(S(=O)(=O)C(F)(F)F)C=N2)cc1 [Compound 67] | 206.99 °C | – | –
41 | CCc1nc2c(C)cc(C)cn2c1C(=O)NCc1ccc(N2CCN(S(=O)(=O)C(F)(F)F)C=N2)c(F)c1 [Compound 95] | – | – | IC50 [1]: 38 nM
42 | O=C(NCc1ccc(N2CCN(S(=O)(=O)C(F)(F)F)C=N2)c(F)c1)c1c(C(F)(F)F)nc2ccc(Cl)cn12 [Compound 124] | – | 10 nM | –
43 | Cc1cnc2nc(C(F)F)c(C(=O)NCc3ccc(N4CCN(S(=O)(=O)C(F)(F)F)C(C(C)C)=N4)c(F)c3)n2c1 [Compound 249] | – | 1.86 nM | –
44 | CCc1nc2ccc(N3CCCC3)cn2c1C(=O)NCc1ccc(N2CCN(S(=O)(=O)C(F)(F)F)C=N2)cc1 [Compound 65] | 228.15 °C | – | –

Row | SMILES | melting point | IC50 ([1]; Test 1 (and/or Test 2)) | other results
45 | CCc1nc2ccc(C)cn2c1C(=O)NCc1ccc(N2CCN(S(=O)(=O)C(F)(F)F)C(C3CC3)=N2)cc1 [Compound 229] | – | 1.07 nM | –
46 | CCc1nc2ccc(Cl)cn2c1C(=O)NCc1ccc(N2CCN(S(=O)(=O)C(F)(F)F)C(CCOC)=N2)cc1 [Compound 55] | 193.51 °C | – | –
47 | CCc1nc2cc(OC)ccn2c1C(=O)NCc1ccc(N2CCN(S(=O)(=O)C(F)(F)F)C(OC)=N2)cc1 [Compound 52] | 164.28 °C | – | –
48 | CCc1nc2ccc(Cl)cn2c1C(=O)NCc1ccc(N2CCN(S(=O)(=O)C(F)(F)F)C(C)=N2)cc1 [Compound 21] | 157.49 °C | – | –
49 | CC(C)C1=NN(c2ccc(CNC(=O)c3c(C(F)(F)F)nc4n3CCCC4)cc2F)CCN1S(=O)(=O)C(F)(F)F [Compound 239] | – | 8.91 nM | –
50 | COC1=NN(c2ccc(CNC(=O)c3nnc4ccc(Cl)cn34)cc2F)CCN1S(=O)(=O)C(F)(F)F [Compound 92] | – | – | IC50 [1]: 53.7 nM
51 | CCc1nc2ncc(C(=O)NC)cn2c1C(=O)NCc1ccc(N2CCN(S(=O)(=O)C(F)(F)F)C=N2)cc1 [Compound 61] | 193.44 °C | – | –
52 | CCc1nc2ccc(OC)cn2c1C(=O)NCc1ccc(N2CCN(S(=O)(=O)C(F)(F)F)C(OC)=N2)c(F)c1 [Compound 48] | 74.6 °C | – | –
53 | CCc1nc2ncc(C)cn2c1C(=O)NCc1ccc(N2CCN(S(=O)(=O)C(F)(F)F)C(C3CC3)=N2)cc1 [Compound 228] | – | 1.45 nM | –
54 | CCc1nc2cc(OC)ccn2c1C(=O)NCc1ccc(N2CCN(S(=O)(=O)C(F)(F)F)C(OC)=N2)c(F)c1 [Compound 75] | 135.16 °C | – | –
55 | CCc1nc2ccc(Cl)cn2c1C(=O)NCc1ccc(N2CCN(S(=O)(=O)CC(C)C)C=N2)cc1 [Compound 17] | 196.82 °C | – | –
56 | CCc1nc2ccc(Cl)cn2c1C(=O)NCc1ccc(N2CCN(C(C)=O)C=N2)cc1 [Compound 18] | 245.36 °C | – | –
57 | CCc1nc2n(c1C(=O)NCc1ccc(N3CCNC=N3)cc1)CCCC2 [Compound 57] | 211.47 °C | – | –
58 | CCc1nc2cc(OC)ccn2c1C(=O)NCc1ccc(N2CCN(S(=O)(=O)C(F)(F)F)C=N2)cc1 [Compound 51] | 185.08 °C | – | –
59 | O=C(NCc1ccc(N2CCN(S(=O)(=O)C(F)(F)F)C=N2)cc1)c1c(C2CC2)nc2ncc(Cl)cn12 [Compound 7] | 208.41 °C | – | –
60 | CCc1nc2ccc(Cl)cn2c1C(=O)NCc1ccc(N2CCN(S(=O)(=O)C(F)(F)F)C(OC)=N2)c(F)c1 [Compound 37] | 193.36 °C | – | –
61 | CCc1nc2c(Cl)c(OC)ccn2c1C(=O)NCc1ccc(N2CCN(S(=O)(=O)C(F)(F)F)C=N2)cc1 [Compound 39] | 211.19 °C | – | –
62 | CCC1=NN(c2ncc(CNC(=O)c3c(C(F)(F)F)nc4ccccn34)cc2F)CCN1S(=O)(=O)C(F)(F)F [Compound 236] | – | 6.17 nM | –
63 | CCc1nc2n(c1C(=O)NCc1ccc(N3CCN(S(=O)(=O)C(F)(F)F)C=N3)cc1)CCCC2 [Compound 3] | 189.22 °C | – | –
64 | CCc1nc2ccc(Cl)cn2c1C(=O)NCc1ccc(N2CCN(C=O)C=N2)cc1 [Compound 38] | 255.93 °C | – | –
65 | CCc1nc2ccc(Cl)cn2c1C(=O)NCc1ccc(N2CCN(S(=O)(=O)C(F)(F)F)C=N2)cc1OC [Compound 22] | 175.12 °C | – | –
66 | CCc1nc2cccc(Cl)n2c1C(=O)NCc1ccc(N2CCN(S(=O)(=O)C(F)(F)F)C(OC)=N2)cc1 [Compound 70] | 138.71 °C | – | –
